{"source": "patent US20240025884A1", "about": "(Dong-A ST Co., Ltd., priority 2022, published 2024)", "note": "pIC50: −log10 of the molar value."}
{"target": "GCN2 (Homo sapiens (Human), UniProt Q9P2K8)", "sequence (Q9P2K8 whole entry)": "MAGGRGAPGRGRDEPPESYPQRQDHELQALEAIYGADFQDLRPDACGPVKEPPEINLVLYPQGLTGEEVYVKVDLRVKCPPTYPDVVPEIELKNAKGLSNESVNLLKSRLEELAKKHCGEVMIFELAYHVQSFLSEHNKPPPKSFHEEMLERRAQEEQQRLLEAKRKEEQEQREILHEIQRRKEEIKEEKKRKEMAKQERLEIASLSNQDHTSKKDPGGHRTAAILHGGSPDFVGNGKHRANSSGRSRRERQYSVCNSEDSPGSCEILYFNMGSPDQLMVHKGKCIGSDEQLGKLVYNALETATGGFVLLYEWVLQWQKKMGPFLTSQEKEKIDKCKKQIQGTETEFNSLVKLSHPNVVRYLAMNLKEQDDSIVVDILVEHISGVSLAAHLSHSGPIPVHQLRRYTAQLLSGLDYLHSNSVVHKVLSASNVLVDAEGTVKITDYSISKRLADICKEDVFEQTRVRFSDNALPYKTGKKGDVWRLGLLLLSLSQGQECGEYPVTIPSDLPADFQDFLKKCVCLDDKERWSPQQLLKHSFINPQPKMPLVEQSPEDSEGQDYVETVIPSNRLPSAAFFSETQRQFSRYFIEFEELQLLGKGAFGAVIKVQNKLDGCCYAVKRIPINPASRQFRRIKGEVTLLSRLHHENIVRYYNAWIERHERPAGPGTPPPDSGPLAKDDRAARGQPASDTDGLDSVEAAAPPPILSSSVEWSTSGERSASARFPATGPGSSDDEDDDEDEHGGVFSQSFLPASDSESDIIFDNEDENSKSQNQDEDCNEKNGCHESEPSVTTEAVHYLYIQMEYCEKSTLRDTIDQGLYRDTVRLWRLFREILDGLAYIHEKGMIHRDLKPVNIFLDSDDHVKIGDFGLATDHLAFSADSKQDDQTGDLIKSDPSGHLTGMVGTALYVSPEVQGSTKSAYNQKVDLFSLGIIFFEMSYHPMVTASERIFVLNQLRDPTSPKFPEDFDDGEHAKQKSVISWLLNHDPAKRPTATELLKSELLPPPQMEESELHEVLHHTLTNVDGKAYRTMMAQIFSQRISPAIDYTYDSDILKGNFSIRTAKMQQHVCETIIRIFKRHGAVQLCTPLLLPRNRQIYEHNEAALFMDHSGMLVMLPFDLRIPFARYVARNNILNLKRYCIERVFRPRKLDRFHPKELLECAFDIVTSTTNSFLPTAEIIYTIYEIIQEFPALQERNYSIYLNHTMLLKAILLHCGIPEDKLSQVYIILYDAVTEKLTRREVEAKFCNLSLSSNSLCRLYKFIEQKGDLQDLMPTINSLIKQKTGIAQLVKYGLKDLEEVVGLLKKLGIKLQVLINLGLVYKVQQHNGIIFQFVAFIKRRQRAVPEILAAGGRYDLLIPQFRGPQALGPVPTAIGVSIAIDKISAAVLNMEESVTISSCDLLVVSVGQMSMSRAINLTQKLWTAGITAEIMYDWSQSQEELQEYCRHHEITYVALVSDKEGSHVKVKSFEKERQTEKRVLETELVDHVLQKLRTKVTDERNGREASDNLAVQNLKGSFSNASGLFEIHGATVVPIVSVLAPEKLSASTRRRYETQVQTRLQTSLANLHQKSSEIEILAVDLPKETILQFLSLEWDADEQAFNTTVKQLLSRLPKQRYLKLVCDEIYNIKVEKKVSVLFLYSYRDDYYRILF", "assay": "GCN2 Biochemical Assay (TR-FRET, GFP-eIF2S1 substrate phosphorylation)", "conditions": "read-out: IC50 (GCN2 Inhibitory Activity)", "experimental": "Experimental Example 1: GCN2 Biochemical Assay\nAn inhibitory effect of the inventive compound on GCN2 was identified as follows.\n384-well (Greiner #784075) (or 1536-well [Greiner #782075]) plates containing 60 nl (or 20 nl for 1536-well) of compound in 100% DMSO (10 concentrations serially diluted 3.16-fold) were prepared. Two copies of plates were used—one for the GCN2 assay and a second for an artifact plate. Working reagents were prepared as follows—reaction buffer: Tris pH 7.5 20 mM, MgCl2 5 mM, DTT 1 mM, Brij-35 0.005%, EGTA 0.5 mM in water; 2× enzyme solution: GCN2 (produced in-house) 1.6 nM in reaction buffer; 2× substrate solution: GFP-eIFS1 (Thermo Fisher Scientific, PV4809) 50 nM, ATP 0.2 mM, tRNA 0.4 mg/ml in reaction buffer; p-GFP-eIF2S1 (artifact) solution: p-GFP-eIFS1 (produced by incubation of 100 nM GFP-eIF2S1 in reaction buffer with 100 uM ATP and 1 nM PERK KD enzyme for 3 hr at room temperature) 2 nM in reaction buffer; 3× stop/antibody solution: p-GFP-EIF2S1 Th-Ab (Thermo Fisher Scientific, PV4816) 6 nM, AZ13933939 3 uM, BSA 3% in reaction buffer. Reagents were loaded onto a liquid dispenser (Certus FLEX, Trajan Scientific and Medical), and 3 ul (1 ul for 1536-well) of 2× enzyme solution, followed by 3 ul (1 ul for 1536-well) of 2× substrate solution was added to the plates. When small numbers of plates were processed, the enzyme solution was added first to all plates, then the valve used for the substrate solution was primed immediately prior to use. Plates were tapped or spun 1 min/1K/RT to ensure proper mixing, followed by incubation at room temperature for 70 mins, covered/stacked in the dark. For the artifact plate, 6 ul of p-GFP-eIF2S1 solution was added prior to adding the stop/antibody solution. 3 ul (1 ul for 1536-well) of 3× stop/antibody solution was added to the plates, followed by a spin-down for 1 min/1K/RT, and incubation for 2-3 hr, sealed or covered with lids in the dark at room temperature. Plates were read on a plate reader (PHERAstar FSX, BMF Labtech) at Ex 340/Em 490/Em 520 nm."}
{"smiles": "Cc1cnc(Nc2cc(C)n(C)n2)nc1-c1c[nH]c2c(NC(=O)CN3CCC(CC#N)C3)cccc12", "note": "(stereo not drawn) [Example 45, 2-(3-(cyanomethyl)pyrrolidin-1-yl)-N-(3-(2-((1,5-dimethyl-1H-pyrazol-3-yl)amino)-5-methylpyrimidin-4-yl)-1H-indol-7-yl)acetamide]", "pIC50": "6.00 to 7.00"}
{"smiles": "Cc1cnc(Nc2cc(C)n(C)n2)nc1-c1c[nH]c2c(NC(=O)CN3CC[C@H](CC#N)C3)cccc12", "note": "[Example 46, (R)-2-(3-(cyanomethyl)pyrrolidin-1-yl)-N-(3-(2-((1,5-dimethyl-1H-pyrazol-3-yl)amino)-5-methylpyrimidin-4-yl)-1H-indol-7-yl)acetamide]", "pIC50": "6.00 to 7.00"}
{"smiles": "Cc1cnc(Nc2cc(C)n(C)n2)nc1-c1c[nH]c2c(NC(=O)CN3CC[C@H](Nc4ccncn4)C3)cccc12", "note": "[Example 47, (S)-N-(3-(2-((1,5-dimethyl-1H-pyrazol-3-yl)amino)-5-methylpyrimidin-4-yl)-1H-indol-7-yl)-2-(3-(pyrimidin-4-ylamino)pyrrolidin-1-yl)acetamide]", "pIC50": "7.00 to 8.00"}
{"smiles": "Cc1cnc(Nc2cc(C)n(C)n2)nc1-c1c[nH]c2c(NC(=O)CN3CC[C@@H](Nc4ccncn4)C3)cccc12", "note": "[Example 48, (R)-N-(3-(2-((1,5-dimethyl-1H-pyrazol-3-yl)amino)-5-methylpyrimidin-4-yl)-1H-indol-7-yl)-2-(3-(pyrimidin-4-ylamino)pyrrolidin-1-yl)acetamide]", "pIC50": "7.00 to 8.00"}
{"smiles": "Cc1cnc(Nc2cc(C)n(C)n2)nc1-c1c[nH]c2c(NC(=O)CN3CC[C@@H](Nc4ccncc4)C3)cccc12", "note": "[Example 49, (R)-N-(3-(2-((1,5-dimethyl-1H-pyrazol-3-yl)amino)-5-methylpyrimidin-4-yl)-1H-indol-7-yl)-2-(3-(pyridin-4-ylamino)pyrrolidin-1-yl)acetamide]", "pIC50": "7.00 to 8.00"}
{"smiles": "Cc1cnc(Nc2cc(C)n(C)n2)nc1-c1c[nH]c2c(NC(=O)CN3C[C@@H](F)[C@@H](O)C3)cccc12", "note": "[Example 50, N-(3-(2-((1,5-dimethyl-1H-pyrazol-3-yl)amino)-5-methylpyrimidin-4-yl)-1H-indol-7-yl)-2-((3R,4S)-3-fluoro-4-hydroxypyrrolidin-1-yl)acetamide]", "pIC50": "7.00 to 8.00"}
{"smiles": "Cc1cnc(Nc2cc(C)n(C)n2)nc1-c1c[nH]c2c(NC(=O)CN3C[C@@H](F)[C@H](Oc4ccncc4)C3)cccc12", "note": "[Example 51, N-(3-(2-((1,5-dimethyl-1H-pyrazol-3-yl)amino)-5-methylpyrimidin-4-yl)-1H-indol-7-yl)-2-((3R,4R)-3-fluoro-4-(pyridin-4-yloxy)pyrrolidin-1-yl)acetamide]", "pIC50": "7.00 to 8.00"}
{"smiles": "Cc1cnc(Nc2cc(C)n(C)n2)nc1-c1c[nH]c2c(NC(=O)CN3C[C@H](F)[C@H](Oc4ccnc(NC5CC5)n4)C3)cccc12", "note": "[Example 52, 2-((3R,4S)-3-((2-(cyclopropylamino)pyrimidin-4-yl)oxy)-4-fluoropyrrolidin-1-yl)-N-(3-(2-((1,5-dimethyl-1H-pyrazol-3-yl)amino)-5-methylpyrimidin-4-yl)-1H-indol-7-yl)acetamide]", "pIC50": "> 8.00"}
{"smiles": "Cc1cnc(Nc2cc(C)n(C)n2)nc1-c1c[nH]c2c(NC(=O)CN3C[C@@H](F)[C@H](Oc4ccnc(NC5CC5)n4)C3)cccc12", "note": "[Example 53, 2-((3R,4R)-3-((2-(cyclopropylamino)pyrimidin-4-yl)oxy)-4-fluoropyrrolidin-1-yl)-N-(3-(2-((1,5-dimethyl-1H-pyrazol-3-yl)amino)-5-methylpyrimidin-4-yl)-1H-indol-7-yl)acetamide]", "pIC50": "> 8.00"}
{"smiles": "Cc1cnc(Nc2cc(C)n(C)n2)nc1-c1c[nH]c2c(NC(=O)CN3C[C@@H](F)[C@@H](Oc4ccnc(NC5CC5)n4)C3)cccc12", "note": "[Example 54, 2-((3S,4R)-3-((2-(cyclopropylamino)pyrimidin-4-yl)oxy)-4-fluoropyrrolidin-1-yl)-N-(3-(2-((1,5-dimethyl-1H-pyrazol-3-yl)amino)-5-methylpyrimidin-4-yl)-1H-indol-7-yl)acetamide]", "pIC50": "7.00 to 8.00"}
{"smiles": "COC(=O)[C@@H]1C[C@H](Oc2ccnc(NC3CC3)n2)CN1CC(=O)Nc1cccc2c(-c3nc(Nc4cc(C)n(C)n4)ncc3C)c[nH]c12", "note": "[Example 55, methyl (2S,4S)-4-((2-(cyclopropylamino)pyrimidin-4-yl)oxy)-1-(2-((3-(2-((1,5-dimethyl-1H-pyrazol-3-yl)amino)-5-methylpyrimidin-4-yl)-1H-indol-7-yl)amino)-2-oxoethyl)pyrrolidine-2-carboxylate]", "pIC50": "> 8.00"}
{"smiles": "Cc1cnc(Nc2cc(C)n(C)n2)nc1-c1c[nH]c2c(NC(=O)CN3C[C@@H](Oc4ccnc(NC5CC5)n4)C[C@H]3C(=O)O)cccc12", "note": "[Example 56, (2S,4S)-4-((2-(cyclopropylamino)pyrimidin-4-yl)oxy)-1-(2-((3-(2-((1,5-dimethyl-1H-pyrazol-3-yl)amino)-5-methylpyrimidin-4-yl)-1H-indol-7-yl)amino)-2-oxoethyl)pyrrolidine-2-carboxylic acid]", "pIC50": "7.00 to 8.00"}
{"smiles": "Cc1cnc(Nc2cc(C)n(C)n2)nc1-c1c[nH]c2c(NC(=O)CN3C[C@@H](Oc4ccnc(NC5CC5)n4)C[C@H]3CO)cccc12", "note": "[Example 57, 2-((2S,4S)-4-((2-(cyclopropylamino)pyrimidin-4-yl)oxy)-2-(hydroxymethyl)pyrrolidin-1-yl)-N-(3-(2-((1,5-dimethyl-1H-pyrazol-3-yl)amino)-5-methylpyrimidin-4-yl)-1H-indol-7-yl)acetamide]", "pIC50": "> 8.00"}
{"smiles": "Cc1cnc(Nc2cc(C)n(C)n2)nc1-c1c[nH]c2c(NC(=O)CN3C[C@@H](Oc4ccnc(NC5CC5)n4)C[C@H]3C(N)=O)cccc12", "note": "[Example 58, (2S,4S)-4-((2-(cyclopropylamino)pyrimidin-4-yl)oxy)-1-(2-((3-(2-((1,5-dimethyl-1H-pyrazol-3-yl)amino)-5-methylpyrimidin-4-yl)-1H-indol-7-yl)amino)-2-oxoethyl)pyrrolidine-2-carboxamide]", "pIC50": "> 8.00"}
{"smiles": "Cc1cnc(Nc2cc(C)n(C)n2)nc1-c1c[nH]c2c(NC(=O)CN3C[C@@H](Oc4ccnc(NC5CC5)n4)C[C@H]3CN)cccc12", "note": "[Example 59, 2-((2S,4S)-2-(aminomethyl)-4-((2-(cyclopropylamino)pyrimidin-4-yl)oxy)pyrrolidin-1-yl)-N-(3-(2-((1,5-dimethyl-1H-pyrazol-3-yl)amino)-5-methylpyrimidin-4-yl)-1H-indol-7-yl)acetamide]", "pIC50": "> 8.00"}
{"smiles": "Cc1cnc(Nc2cc(C)n(C)n2)nc1-c1c[nH]c2c(NC(=O)CN3CC[C@H](Oc4ccnc(NC5CC5)n4)C3=O)cccc12", "note": "[Example 60, (S)-2-(3-((2-(cyclopropylamino)pyrimidin-4-yl)oxy)-2-oxopyrrolidin-1-yl)-N-(3-(2-((1,5-dimethyl-1H-pyrazol-3-yl)amino)-5-methylpyrimidin-4-yl)-1H-indol-7-yl)acetamide]", "pIC50": "7.00 to 8.00"}
{"smiles": "Cc1cnc(Nc2cc(C)n(C)n2)nc1-c1c[nH]c2c(NC(=O)CN3C[C@@H](Oc4ccnc(NC5CC5)n4)CC3=O)cccc12", "note": "[Example 61, (S)-2-(4-((2-(cyclopropylamino)pyrimidin-4-yl)oxy)-2-oxopyrrolidin-1-yl)-N-(3-(2-((1,5-dimethyl-1H-pyrazol-3-yl)amino)-5-methylpyrimidin-4-yl)-1H-indol-7-yl)acetamide]", "pIC50": "> 8.00"}
{"smiles": "Cc1cnc(Nc2cc(C)n(C)n2)nc1-c1c[nH]c2c(NC(=O)CN3CC[C@H](C(=O)N4CCNC(=O)C4)C3)cccc12", "note": "[Example 62, (S)-N-(3-(2-((1,5-dimethyl-1H-pyrazol-3-yl)amino)-5-methylpyrimidin-4-yl)-1H-indol-7-yl)-2-(3-(3-oxopiperazine-1-carbonyl)pyrrolidin-1-yl)acetamide]", "pIC50": "6.00 to 7.00"}
{"smiles": "Cc1cnc(Nc2cc(C)n(C)n2)nc1-c1c[nH]c2c(NC(=O)CN3CC[C@H](C(=O)N4CCOCC4)C3)cccc12", "note": "[Example 63, (S)-N-(3-(2-((1,5-dimethyl-1H-pyrazol-3-yl)amino)-5-methylpyrimidin-4-yl)-1H-indol-7-yl)-2-(3-(morpholine-4-carbonyl)pyrrolidin-1-yl)acetamide]", "pIC50": "6.00 to 7.00"}
{"smiles": "Cc1cnc(Nc2cc(C)n(C)n2)nc1-c1c[nH]c2c(NC(=O)CN3CC[C@H](C(=O)N4CCSCC4)C3)cccc12", "note": "[Example 64, (S)-N-(3-(2-((1,5-dimethyl-1H-pyrazol-3-yl)amino)-5-methylpyrimidin-4-yl)-1H-indol-7-yl)-2-(3-(thiomorpholine-4-carbonyl)pyrrolidin-1-yl)acetamide]", "pIC50": "7.00 to 8.00"}
{"smiles": "Cc1cnc(Nc2cc(C)n(C)n2)nc1-c1c[nH]c2c(NC(=O)CN3CC[C@@H](C(=O)N4CCN(C)CC4)C3)cccc12", "note": "[Example 65, (R)-N-(3-(2-((1,5-dimethyl-1H-pyrazol-3-yl)amino)-5-methylpyrimidin-4-yl)-1H-indol-7-yl)-2-(3-(4-methylpiperazine-1-carbonyl)pyrrolidin-1-yl)acetamide]", "pIC50": "6.00 to 7.00"}
